Experimental data taken from patent US20130230459A1, “RADIOLABELLED mGluR2 PET LIGANDS” (Janssen Pharmaceuticals, Inc., priority 2010, published 2013).
Several values for one entry are separate records, joined by “and”; a condition that tells them apart may be missing. Equal entries are not always repeated.

Assay: Biodistribution studies of 11C tracers
Type: in vivo, Wistar rats
Settings: for SUV Blood / SUV Cerebellum / SUV Cerebrum total / SUV Cortex / SUV Hippocampus / SUV Striatum: normalized for body weight; for % ID present in the carcass: at all time points examined
Experimental: Biodistribution studies were carried out in healthy male Wistar rats (body weight 200-450 g) at 2 min, 30 min and 60 min post injection (p.i.) (n=3/time point). Rats were injected with about 11 MBq (2 min, 30 min analysis) or 22 MBq (60 min analysis) of the tracer via tail vein under anesthesia (2.5% isoflurane in O2 at 1 L/min flow rate) and sacrificed by decapitation at above specified time points. Blood and major organs were collected in tared tubes and weighed. The radioactivity in blood, organs and other body parts was measured using an automated gamma counter. The distribution of radioactivity in different parts of the body at different time points p.i. of the tracer was calculated and expressed as percentage of injected dose (% ID), and as percentage of injected dose per gram tissue (% ID/g) for the selected organs. % ID is calculated as cpm in organ/total cpm recovered. For calculation of total radioactivity in blood, blood mass was assumed to be 7% of the body mass.

For `[11CH3]Oc1c(F)ccc(F)c1C1CCN(c2ccn3c(CC4CC4)nnc3c2C(F)(F)F)CC1` [[^11C]B-3, 3-(cyclopropylmethyl)-7-[4-[3,6-difluoro-2-[^11C]methoxyphenyl]-1-piperidinyl]-8-(trifluoromethyl)-1,2,4-triazolo[4,3-a]pyridine], the “% ID Blood” value (2 min p.i.) was 8.5 % ID and 8.5 ± 1.9 % ID, the “% ID Carcass” value (2 min p.i.) was 36.0 ± 0.7 % ID and the “% ID Cerebellum” value (2 min p.i.) was 0.17 % ID and 0.165 ± 0.009 % ID. The “% ID Cerebrum total” value (2 min p.i.) was 0.54 % ID and 0.536 ± 0.048 % ID, the “% ID Cortex” value (2 min p.i.) was 0.062 ± 0.009 % ID and the “% ID Heart” value (2 min p.i.) was 4.8 ± 0.4 % ID. For the same compound, the “% ID Hippocampus” value (2 min p.i.) was 0.017 ± 0.002 % ID, the “% ID Intestines” value (2 min p.i.) was 9.4 ± 0.8 % ID and the “% ID Kidneys” value (2 min p.i.) was 8.8 ± 0.7 % ID. The “% ID Liver” value (2 min p.i.) was 28.7 ± 2.1 % ID, the “% ID Lungs” value (2 min p.i.) was 3.7 ± 1.7 % ID and the “% ID Rest of cerebrum” value (2 min p.i.) was 0.457 ± 0.050 % ID. The “% ID Spleen + Pancreas” value (2 min p.i.) was 2.0 ± 0.1 % ID, the “% ID Stomach” value (2 min p.i.) was 1.5 ± 0.4 % ID and the “% ID Striatum” value (2 min p.i.) was 0.028 ± 0.002 % ID. For the same compound, the “% ID Urine” value (2 min p.i.) was 0.1 ± 0.0 % ID, the Total brain uptake (2 min p.i.) was 0.75 % ID and 0.75 ± 0.0 % ID and the “SUV Blood” value (2 min p.i.) was 1.20 ± 0.03. For the same compound, the “SUV Cerebellum” value (2 min p.i.) was 1.54 and 1.54 ± 0.01, the “SUV Cerebrum total” value (2 min p.i.) was 1.09 ± 0.01 and the “SUV Cortex” value (2 min p.i.) was 1.03 ± 0.00. The “SUV Hippocampus” value (2 min p.i.) was 0.85 ± 0.01, the “SUV Striatum” value (2 min p.i.) was 0.99 ± 0.00 and the “% ID Blood” value (30 min p.i.) was 2.6 ± 0.7 % ID. The “% ID Carcass” value (30 min p.i.) was 46.7 ± 7.8 % ID, the “% ID Cerebellum” value (30 min p.i.) was 0.142 ± 0.042 % ID and the “% ID Cerebrum total” value (30 min p.i.) was 0.489 ± 0.121 % ID. For the same compound, the “% ID Cortex” value (30 min p.i.) was 0.071 ± 0.031 % ID, the “% ID Heart” value (30 min p.i.) was 1.7 ± 0.7 % ID and the “% ID Hippocampus” value (30 min p.i.) was 0.019 ± 0.006 % ID. The “% ID Intestines” value (30 min p.i.) was 8.9 ± 1.4 % ID, the “% ID Kidneys” value (30 min p.i.) was 3.4 ± 1.0 % ID and the “% ID Liver” value (30 min p.i.) was 31.3 ± 9.7 % ID. The “% ID Lungs” value (30 min p.i.) was 0.5 ± 0.2 % ID, the “% ID Rest of cerebrum” value (30 min p.i.) was 0.373 ± 0.084 % ID and the “% ID Spleen + Pancreas” value (30 min p.i.) was 1.1 ± 0.3 % ID. The “% ID Stomach” value (30 min p.i.) was 3.8 ± 1.4 % ID, the “% ID Striatum” value (30 min p.i.) was 0.027 ± 0.007 % ID and the “% ID Urine” value (30 min p.i.) was 0.5 ± 0.1 % ID. The Total brain uptake (30 min p.i.) was 0.64 ± 0.2 % ID, the “SUV Blood” value (30 min p.i.) was 0.40 ± 0.01 and the “SUV Cerebellum” value (30 min p.i.) was 1.54 and 1.54 ± 0.04. For the same compound, the “SUV Cerebrum total” value (30 min p.i.) was 1.11 ± 0.03, the “SUV Cortex” value (30 min p.i.) was 1.00 ± 0.03 and the “SUV Hippocampus” value (30 min p.i.) was 0.84 ± 0.02. For the same compound, the “SUV Striatum” value (30 min p.i.) was 1.15 ± 0.04, the “% ID Blood” value (60 min p.i.) was 2.9 % ID and 2.9 ± 0.4 % ID and the “% ID Carcass” value (60 min p.i.) was 44.2 ± 10.9 % ID. For the same compound, the “% ID Cerebellum” value (60 min p.i.) was 0.142 ± 0.050 % ID, the “% ID Cerebrum total” value (60 min p.i.) was 0.499 ± 0.168 % ID and the “% ID Cortex” value (60 min p.i.) was 0.069 ± 0.027 % ID. The “% ID Heart” value (60 min p.i.) was 1.1 ± 0.6 % ID, the “% ID Hippocampus” value (60 min p.i.) was 0.023 ± 0.011 % ID and the “% ID Intestines” value (60 min p.i.) was 14.8 ± 1.7 % ID. For the same compound, the “% ID Kidneys” value (60 min p.i.) was 2.4 ± 0.9 % ID, the “% ID Liver” value (60 min p.i.) was 23.6 ± 12.9 % ID and the “% ID Lungs” value (60 min p.i.) was 0.7 ± 0.3 % ID. For the same compound, the “% ID Rest of cerebrum” value (60 min p.i.) was 0.371 ± 0.119 % ID, the “% ID Spleen + Pancreas” value (60 min p.i.) was 0.9 ± 0.3 % ID and the “% ID Stomach” value (60 min p.i.) was 9.6 ± 2.2 % ID. The “% ID Striatum” value (60 min p.i.) was 0.036 ± 0.014 % ID, the “% ID Urine” value (60 min p.i.) was 0.4 ± 0.1 % ID and the “% ID present in liver and intestines” value (60 min p.i.) was 38.4 % ID. The “% ID present in the urinary system” value (60 min p.i.) was 2.8 % ID, the Total brain uptake (60 min p.i.) was 0.66 ± 0.2 % ID and the “SUV Blood” value (60 min p.i.) was 0.40 ± 0.01. The “SUV Cerebellum” value (60 min p.i.) was 1.84 ± 0.07, the “SUV Cerebrum total” value (60 min p.i.) was 1.38 ± 0.05 and the “SUV Cortex” value (60 min p.i.) was 1.13 ± 0.04. For the same compound, the “SUV Hippocampus” value (60 min p.i.) was 1.11 ± 0.04, the “SUV Striatum” value (60 min p.i.) was 1.76 ± 0.07 and the “% ID present in the carcass” value was roughly 42 % ID.
In the case of `[11CH3]Oc1cccc(F)c1C1CCN(c2ccn3c(CC4CC4)nnc3c2Cl)CC1` [[^11C]B-6, 8-chloro-3-(cyclopropylmethyl)-7-[4-[2-fluoro-6-[^11C]methoxyphenyl]-1-piperidinyl]-1,2,4-triazolo[4,3-a]pyridine], the “% ID Blood” value (2 min p.i.) is reported as 6.5 % ID and 6.5 ± 0.9 % ID, the “% ID Carcass” value (2 min p.i.) is reported as 43.5 ± 1.4 % ID and the “% ID Cerebellum” value (2 min p.i.) is reported as 0.17 % ID and 0.170 ± 0.012 % ID. The “% ID Cerebrum total” value (2 min p.i.) was 0.45 % ID and 0.446 ± 0.073 % ID, the “% ID Cortex” value (2 min p.i.) was 0.068 ± 0.015 % ID and the “% ID Heart” value (2 min p.i.) was 4.1 ± 0.1 % ID. For the same compound, the “% ID Hippocampus” value (2 min p.i.) was 0.019 ± 0.000 % ID, the “% ID Intestines” value (2 min p.i.) was 7.6 ± 0.5 % ID and the “% ID Kidneys” value (2 min p.i.) was 6.8 ± 0.7 % ID. For the same compound, the “% ID Liver” value (2 min p.i.) was 30.2 ± 0.9 % ID, the “% ID Lungs” value (2 min p.i.) was 1.8 ± 0.5 % ID and the “% ID Rest of cerebrum” value (2 min p.i.) was 0.359 ± 0.086 % ID. The “% ID Spleen + Pancreas” value (2 min p.i.) was 1.4 ± 0.1 % ID, the “% ID Stomach” value (2 min p.i.) was 1.3 ± 0.2 % ID and the “% ID Striatum” value (2 min p.i.) was 0.022 ± 0.002 % ID. For the same compound, the “% ID Urine” value (2 min p.i.) was 0.1 ± 0.0 % ID, the Total brain uptake (2 min p.i.) was 0.65 % ID and 0.65 ± 0.1 % ID and the “SUV Blood” value (2 min p.i.) was 0.90 ± 0.01. For the same compound, the “SUV Cerebellum” value (2 min p.i.) was 1.62 ± 0.00, the “SUV Cerebrum total” value (2 min p.i.) was 1.00 ± 0.02 and the “SUV Cortex” value (2 min p.i.) was 1.04 ± 0.00. The “SUV Hippocampus” value (2 min p.i.) was 0.86 ± 0.01, the “SUV Striatum” value (2 min p.i.) was 1.01 ± 0.01 and the “% ID Blood” value (30 min p.i.) was 2.9 ± 0.1 % ID. For the same compound, the “% ID Carcass” value (30 min p.i.) was 61.8 ± 2.1 % ID, the “% ID Cerebellum” value (30 min p.i.) was 0.201 ± 0.016 % ID and the “% ID Cerebrum total” value (30 min p.i.) was 0.723 ± 0.103 % ID. The “% ID Cortex” value (30 min p.i.) was 0.078 ± 0.020 % ID, the “% ID Heart” value (30 min p.i.) was 1.7 ± 0.2 % ID and the “% ID Hippocampus” value (30 min p.i.) was 0.028 ± 0.006 % ID. For the same compound, the “% ID Intestines” value (30 min p.i.) was 9.9 ± 1.4 % ID, the “% ID Kidneys” value (30 min p.i.) was 3.0 ± 0.4 % ID and the “% ID Liver” value (30 min p.i.) was 17.0 ± 1.1 % ID. The “% ID Lungs” value (30 min p.i.) was 0.8 ± 0.1 % ID, the “% ID Rest of cerebrum” value (30 min p.i.) was 0.580 ± 0.081 % ID and the “% ID Spleen + Pancreas” value (30 min p.i.) was 1.0 ± 0.2 % ID. The “% ID Stomach” value (30 min p.i.) was 2.3 ± 0.5 % ID, the “% ID Striatum” value (30 min p.i.) was 0.037 ± 0.005 % ID and the “% ID Urine” value (30 min p.i.) was 0.3 ± 0.1 % ID. For the same compound, the Total brain uptake (30 min p.i.) was 0.95 ± 0.1 % ID, the “SUV Blood” value (30 min p.i.) was 0.40 ± 0.00 and the “SUV Cerebellum” value (30 min p.i.) was 2.28 and 2.28 ± 0.01. For the same compound, the “SUV Cerebrum total” value (30 min p.i.) was 1.66 ± 0.02, the “SUV Cortex” value (30 min p.i.) was 1.47 ± 0.03 and the “SUV Hippocampus” value (30 min p.i.) was 1.36 ± 0.01. The “SUV Striatum” value (30 min p.i.) was 1.70 ± 0.01, the “% ID Blood” value (60 min p.i.) was 3.6 % ID and 3.6 ± 0.2 % ID and the “% ID Carcass” value (60 min p.i.) was 57.8 ± 1.9 % ID. For the same compound, the “% ID Cerebellum” value (60 min p.i.) was 0.155 ± 0.024 % ID, the “% ID Cerebrum total” value (60 min p.i.) was 0.597 ± 0.062 % ID and the “% ID Cortex” value (60 min p.i.) was 0.074 ± 0.021 % ID. The “% ID Heart” value (60 min p.i.) was 1.0 ± 0.1 % ID, the “% ID Hippocampus” value (60 min p.i.) was 0.024 ± 0.003 % ID and the “% ID Intestines” value (60 min p.i.) was 12.0 ± 1.1 % ID. The “% ID Kidneys” value (60 min p.i.) was 1.9 ± 0.3 % ID, the “% ID Liver” value (60 min p.i.) was 18.6 ± 1.0 % ID and the “% ID Lungs” value (60 min p.i.) was 0.6 ± 0.1 % ID. The “% ID Rest of cerebrum” value (60 min p.i.) was 0.468 ± 0.054 % ID, the “% ID Spleen + Pancreas” value (60 min p.i.) was 0.8 ± 0.0 % ID and the “% ID Stomach” value (60 min p.i.) was 4.3 ± 1.8 % ID. The “% ID Striatum” value (60 min p.i.) was 0.031 ± 0.003 % ID, the “% ID Urine” value (60 min p.i.) was 0.6 ± 0.1 % ID and the “% ID present in liver and intestines” value (60 min p.i.) was 30.6 % ID. For the same compound, the “% ID present in the urinary system” value (60 min p.i.) was 2.5 % ID, the Total brain uptake (60 min p.i.) was 0.76 ± 0.1 % ID and the “SUV Blood” value (60 min p.i.) was 0.50 ± 0.00. For the same compound, the “SUV Cerebellum” value (60 min p.i.) was 1.57 ± 0.01, the “SUV Cerebrum total” value (60 min p.i.) was 1.24 ± 0.01 and the “SUV Cortex” value (60 min p.i.) was 1.01 ± 0.01. The “SUV Hippocampus” value (60 min p.i.) was 1.02 ± 0.01, the “SUV Striatum” value (60 min p.i.) was 1.46 ± 0.01 and the “% ID present in the carcass” value was roughly 54 % ID.
